Data reported in PMC9411606, “Control cell migration by engineering integrin ligand assembly” (Nature Communications, 2022).

What was measured:
[1] = system: integrin knockdown HuH-7 cells; test: Cell adhesion assay, integrin knockdown HuH-7; format: cell-based, human; conditions: coated with 100 µM FFFIKLLI, n = 30
Procedure: Integrin β1 shRNA plasmid (#sc-29375-SH), Integrin α3 shRNA plasmid (#sc-35684-SH), Integrin α6 shRNA plasmid (#sc-43129-SH), and control shRNA plasmid-A (#sc-108060) were purchased from Santa Cruz Biotechnology for knockdown of the target integrins. The knockdown efficiency was evaluated by western blotting.
(§1) The 96-well microplates wells were coated with peptide assemblies (the concentration of FFFIKLLI was kept at 100 μM constantly) for 12 hr at 37 °C before blocked with the Blocking Buffer (2% BSA, 1 mM CaCI2 and 1 mM MnCI2 in PBS) for 1 hr at 37 °C. Cells were collected from culture dishes and suspended in the Blocking Buffer containing anti-laminin-5 (P3H9-2, MAB1947, Chemicon, 5 μg/ml), anti-fibronectin (IST-9, ab6328, Abcam, 20 μg/ml) or IgG isotype control (20 μg/ml, Abcam) before immediately seeded to the coated well (20,000 cells/well) and allowed to incubate at 37 °C for 1 h. The wells were washed for three times with the Blocking Buffer and the phase-contrast images were captured by IncucyteS3 (Essen Bioscience) with a 10× objective.

[2] = system: FAK Y397 phosphorylation in HuH-7 cells; test: Western blotting FAK / pY397 FAK; format: cell-based, human
HuH-7 cells [3] = test: Morphodynamics analysis (edge velocity); format: cell-based, human; conditions: for Retraction velocity / Protrusion velocity: median
Procedure: The whole-cell morphodynamics maps were generated using the open-source ImageJ plugin “ADAPT”[46]. The analyses were done on the maximum intensity projection of 5.5-µm stack images of mRuby-Lifeact-7 transfected HuH-7 cells pretreated with peptides for 12 hr. A spinning-disk confocal (Olympus SD-OSR) equipped with the camera Prime BSI sCMOS camera and a 100×/1.35 Silicon UPlanSApo objective was used to obtain the images every 2 min. All velocity values are directly measured using the plugin and plotted using GraphPad Prism. Briefly, the fluorescent images were Gaussian filtered to suppress noise and then a gray-level threshold was applied to create a binary image. The cell boundary was taken as pixels bordering segmented regions and the resulting segmentation is used as the seed for the region-growing algorithm in the next frame. […] The change in gray level was used to calculate the membrane velocity at each point and for a better visual representation, the resulting velocity map images (around 10000 × 100 pixels) were stretched to optimize visualization. […]

[4] = system: MCF-7 and Ect1/E6E7 cells; test: Wound healing assay, cells lacking integrin α3β1; format: cell-based, human; conditions: 10-200 µM, 48 hr
Procedure: Healthy cells were seeded in 96-well Image Lock plates (Essen Bioscience, UK). Each well contained 2 ×10^4 to 5 × 10^4 cells in 100 μL of complete cell culture medium. Cell monolayer with approximately 90% confluence formed after 12 hr and cells were next starved in serum-free culture medium for 12 hrs. Homogenous scratch wounds with a width of about 700 μm were made by an Essen BioScienceWound Maker. The detached cells were washed with Dulbecco’s Buffered Saline (DPBS, Gibco) 3 times. Cells were incubated with 100 μL of culture medium containing 0.5 % FBS and desired concentration of each peptide. Wound closure was monitored by an IncucyteS3 (Essen Bioscience) with a 10x objective. Images for each well were acquired every 2 hr to 8 hr for 2 days or until the wounds were closed completely. The wound healing rate was quantified by Incucyte Scratch Wound Analysis Module (Essen Bioscience). The experiments were repeated at least 3 times, and the results were presented as mean ± standard deviation of at least 3 independent experiments.

[5] = system: cells lacking integrin α3β1 expression; test: Cell adhesion assay, cells lacking integrin α3β1; format: cell-based, human; conditions: coated with 100 µM, 1 h at 37 °C, n = 30
Procedure: as §1

[6] = Circular dichroism (CD) spectroscopy of peptide assemblies; format: physicochemical; conditions: 100 µM, aqueous, 0.5 mm path
Procedure: CD spectra of the peptide assemblies in aqueous solutions were recorded under the nitrogen atmosphere using a spectrophotometer JASCO J-820 (Jasco, Japan). A quartz cuvette with 0.5 mm path length was used as a sample container. Continuous scanning mode is applied. And each sample is scanned three times to obtain an averaged spectrum.

HuH-7 cells [7] = test: Traction stress analysis; format: cell-based, human; conditions: HuH-7 on PDMS, 12 hr, n = 18-21 cells
Procedure: mRuby-Lifeact-7 transfected HuH-7 cells were applied for the traction force microscopy experiments. The in situ fluorescent images of the cell was applied to define the area of measurement. The cells were seeded on a PDMS substrate functionalized with 0.2 µm FluoSpheres™ Carboxylate-Modified Microspheres (F8807, Invitrogen) at a density of approximately 6000 cells/cm^2. The substrate was fabricated by following the published protocol on (STAR) Protocol[45], except that there were no ECM proteins coated on the substrate here. […] After being pretreated with peptides for 12 hr, the samples were imaged by a 100×/1.35 Silicon UPlanSApo objective, and the bead displacement obtained from confocal imaging was converted into force-displacement fields following established protocol[47],[48]. Briefly, Images of beads with and without cell attachment were first aligned to correct experimental drift using ImageJ plugin “align slices in stack”. The displacement field was subsequently calculated by another ImageJ plugin “PIV (Particle Image Velocimetry)”. The cross-correlation PIV with a size of 64 × 32 pixels was used on all images for the PIV analysis to produce the position and vector field of the bead displacement. With the displacement field obtained from the PIV analysis, the traction force field was then reconstructed by the ImageJ plugin “FTTC”. […]

[8] = FTIR microscopy of peptide assemblies; format: physicochemical; conditions: freeze-dried on CaF2, aqueous assembly
Text: To prepare FTIR samples, an aliquot of the peptide solution was dropped on a TS CaF2 window (5 mm diameter) (Edmund Optics, Japan) and freeze-dried using a lyophilizer (Freeze Dryer, Labconco). The CaF2 Window with assembled nanofilaments was mounted for FTIR microscopic analysis. FTIR microscopic analysis of a plain CaF2 Window served as the reference. An FTIR microscope (Nicolet iN10, Thermo Fisher Scientific) equipped with an MCT detector was used for collecting IR spectra. Spectra ranging from 4000 to 650 cm^−1 were obtained in transmission mode, aperture of 50 μm, with the resolution of 2 cm^−1. Each spectrum was derived from an average of 128 scans for each sample.

[9] = relative to Ctrl = 1, 12 hr, representative blot
[10] = entire periphery, HuH-7, pretreated 12 hr, violin plot
[11] = vin258-transfected HuH-7, 12 hr, n = 10 cells

FFFIKLLI [assembling ligand: FFF coupled to the N-terminus of IKLLI; self-assembles into nanofilaments]
adherence after knockdown of α3 or β1 subunit [1]: significantly reduced their adherence | FAK Y397 phosphorylation ([2]; HuH-7, 12 hr, n = 9): reduction | FAK band [2, 9]: 0.87 | pY397FAK band [2, 9]: 0.34 | trailing edge retraction and leading-edge protrusion (HuH-7 cells [3]; HuH-7, FFFIKLLI 100 μM, 12 h): restricted both trailing edge retraction and leading-edge protrusion | Retraction velocity (HuH-7 cells [3]; Tiam1/Rac1-activated HuH-7, 12 hr, n = 7, 8 cells): 0.035 µm/min | Protrusion velocity (HuH-7 cells [3]; [10]): 0.0072 µm/min | Retraction velocity (HuH-7 cells [3]; [10]): 0.0076 µm/min | Protrusion velocity (HuH-7 cells [3]; [11]): 0.0086 µm/min | Retraction velocity (HuH-7 cells [3]; [11]): 0.0080 µm/min | effect on cell migration [4]: negligible influence | adherence to FFFIKLLI-coated dishes [5]: washed out | secondary structure of self-assembly [6]: random coil structure | Average Traction Stress (HuH-7 cells [7]): 0.101 kPa | Maximal Traction Stress (HuH-7 cells [7]): 0.828 kPa | hydrogen bonding by FTIR [8]: NH-N
